How the values were obtained:
[1] = test system: MAP-rich tubulin; assay: Tubulin polymerization test procedure with MAP-rich tubulin; format: biochemical, bovine; settings: MAP-rich tubulin with 1 mM GTP, compound 0.3 μM, at 20 min
Protocol: (§1) Medium is RPMI-1640 with L-glutamine, supplemented with 10% heat-inactivated fetal calf serum, 100 units/mL penicillin, and 100 μg/mL streptomycin (Gibco, Grand Island, N.Y.). Microtubule-associated protein (MAP)-rich tubulin, containing about 70% tubulin and 30% MAPs (#ML113), and highly purified tubulin (>99% pure, #TL238), both from bovine brain, are obtained from Cytoskeleton, Inc., Denver, Colo. PEM buffer (80 mM piperazine-N,N′-bis[2-ethanesulfonic acid], pH 6.9, 1 mM ethylene glycol-bis(β-aminoethyl ether)-N,N,N′,N′-tetraacetic acid, 1 mM magnesium chloride) and guanosine 5′-triphosphate (GTP) are also obtained from Cytoskeleton. [^3H]paclitaxel, specific activity 14.7 Ci/mmol, is purchased from Moravek Biochemicals (Brea, Calif.). [^3H]vinblastine, specific activity 9.60 Ci/mmol and MicroSpin G-50 columns are obtained from Amersham Biosciences (Piscataway, N.J.). […] Other reagents are obtained from Sigma (St. Louis, Mo.).
MAP-rich tubulin is dissolved in ice-cold PEM buffer containing 1 mM GTP (GPEM buffer) at a concentration of 1.3 mg/mL. The solution is centrifuged at top speed in an Eppendorf model 5415C microcentrifuge (Brinkmann Instruments, Westbury, N.Y.) for 10 min at 40 immediately before use. The tubulin solution is added to wells of a ½-area 96-well plate (Costar No. 3696, Corning, Inc., Corning, N.Y.) already containing the compounds of interest. Each compound is tested in duplicate at a final concentration of 0.3 μM in a volume of 110 μL per well. The final DMSO concentration in all wells is 0.3%. Control reactions, which receive compound solvent only, are done in quadruplicate. The plate is put in a SpectraMax Plus plate reader (Molecular Devices Corp. Sunnyvale, Calif.) thermostated at 240 and the absorbance of each well at 340 nm, a measure of the appearance of turbidity due to tubulin polymer formation, is determined every minute for 60 minutes. The absorbance at time 0 for each well is subtracted from each of the subsequent absorbance readings for that well, and then the duplicates are averaged.
In this assay, control reactions with MAP-rich tubulin show an S-shaped absorbance profile characterized by three phases: first, a lag phase during which no change in absorbance occurs; second, a polymerization phase in which absorbance increases; and third, a plateau phase in which absorbance has reached a maximum and little or no further change occurs. Polymerization enhancers such as paclitaxel and docetaxel shorten or eliminate the lag phase, increase the rate of the polymerization phase, and often increase the height of the plateau. […] This has been expressed quantitatively in Table 6 by dividing the mean A340 of each sample at 20 min by the mean A340 of the control at 20 min to give a fold enhancement over control. […]

[2] = test system: pure tubulin; assay: Tubulin polymerization test procedure with pure tubulin; format: biochemical, bovine; settings: pure tubulin without added GTP
Protocol: as §1
The procedure with pure tubulin is similar except for the following changes. […] The supernatant after centrifugation is dispensed to a ½-area 96-well plate already containing compounds. Each compound is tested in duplicate at a final concentration of 24.3 μM. The plate reader μs thermostated at 35°.

[3] = test system: highly purified tubulin (tubulin heterodimer); assay: Competitive binding test procedure, [3H]vinblastine; design: species or system bovine; settings: competitor 100 μM, [3H]vinblastine 100 nM
Protocol: as §1
(§2) The binding of examples of this invention to highly purified tubulin is studied by competitive inhibition methods. […] To study possible competition at the taxane site, on the other hand, polymerized tubulin (microtubules) is used because paclitaxel binds preferentially to microtubules.
(§3) Highly purified tubulin is dissolved in PEM buffer without GTP and used at a final concentration of 1.0 to 1.3 mg/ml (10 to 13 μM). […] These solutions are incubated at 240 for 1 hr and then applied to MicroSpin G-50 columns which are centrifuged for 2 min at 3000 rpm in an Eppendorf 5415C microfuge. An aliquot of each column effluent (containing tubulin and bound radioligand) is mixed with scintillation fluid and counted in a liquid scintillation spectrometer. […] Quadruplicates are averaged, and the ability of the competitor to inhibit the binding of the radioligand is expressed as a percentage of control binding in the absence of any competitor.

[4] = test system: highly purified tubulin (tubulin heterodimer); assay: Competitive binding test procedure, [3H]colchicine; design: species or system bovine; settings: competitor 100 μM, [3H]colchicine 50 nM
Protocol: as §1, §2, §3

[5] = test system: polymerized tubulin (microtubules); assay: Competitive binding test procedure, [3H]paclitaxel; design: species or system bovine; settings: competitor 20 μM, [3H]paclitaxel 2.1 μM
Protocol: as §1, §2
For competition with [^3H]paclitaxel, highly purified tubulin is dissolved in PEM buffer containing 0.75 M glutamate and 25 μM dideoxy-GTP; final protein concentration is 0.25 to 0.35 mg/mL (2.5 to 3.5 μM). These conditions foster the rapid formation of short, stable microtubule polymers (Hamel, E., del Campo, A. A., and Lin, C. M. Stability of tubulin polymers formed with dideoxyguanosine nucleotides in the presence and absence of microtubule-associated proteins. J. Biol. Chem., 259: 2501-2508, 1984). […] The reactions are then centrifuged at top speed in an Eppendorf 5415C microfuge for 20 min at room temperature in order to pellet the microtubule protein. Triplicate aliquots of each supernatant are mixed with scintillation fluid and counted in a liquid scintillation spectrometer. From the amount of radioactivity in the supernatants and the measured total starting radioactivity, the amount of [^3H]paclitaxel bound to pelleted microtubule protein is calculated. The ability of each competitor to inhibit radioligand binding to pelleted protein is expressed as a percent of controls without any competitor.

`CC[C@]1(O)C[C@H]2CN(CCc3c([nH]c4ccccc34)[C@@](C(=O)OC)(c3cc4c(cc3OC)N(C=O)[C@H]3[C@@](O)(C(=O)OC)[C@H](OC(C)=O)[C@]5(CC)C=CCN6CC[C@]43[C@@H]65)C2)C1` [Vincristine, reference compound] was tested, and the “A340 Compound / A340 Control (fold enhancement over control)” value [1] was 0.5, the “polymerization of pure tubulin without GTP (in words)” value [2] was “no activity” and the “[3H]Vinblastine binding, Mean, percent of binding to control without competitor” value [3] was 5%. For the same molecule, the “[3H]Colchicine binding, Mean, percent of binding to control without competitor” value [4] was 99% and the “[3H]Paclitaxel binding, Mean, percent of binding to control without competitor” value [5] was 22%.

— US7285555B2, “6-aryl-7-halo-imidazo[1,2-a]pyrimidines as anticancer agents” (Wyeth Holdings Corporation, priority 2003, dated 2007)
